ChEMBL document CHEMBL1156996 (Bioorg Med Chem Lett, 2010)
Each block holds one compound with its values, some of them ahead of it.

What was measured:
[1] = inhibition of Cryptococcus neoformans recombinant Can2 after 15 mins by stopped-flow CO2 hydration assay
[2] = molecular target: T1, Carbonic anhydrase (Candida albicans (strain SC5314 / ATCC MYA-2876) (Yeast), UniProt Q5AJ71); test: inhibition of Candida albicans recombinant Nce103 after 15 mins by stopped-flow CO2 hydration assay
T1 sequence (Q5AJ71 whole entry): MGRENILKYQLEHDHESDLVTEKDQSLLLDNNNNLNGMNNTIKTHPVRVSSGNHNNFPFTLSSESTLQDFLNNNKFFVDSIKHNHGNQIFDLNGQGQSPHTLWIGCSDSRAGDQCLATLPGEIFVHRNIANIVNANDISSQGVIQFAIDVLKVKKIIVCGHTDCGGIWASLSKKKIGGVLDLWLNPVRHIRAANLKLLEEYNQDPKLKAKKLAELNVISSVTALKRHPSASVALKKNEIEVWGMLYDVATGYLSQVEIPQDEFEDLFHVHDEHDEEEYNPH

[3] = Selectivity ratio of IC50 for human CA2 to IC50 for Cryptococcus neoformans Can2
[4] = Selectivity ratio of IC50 for human CA1 to IC50 for Cryptococcus neoformans Can2
[5] = molecular target: T2, Carbonic anhydrase (Candida albicans (strain SC5314 / ATCC MYA-2876) (Yeast)) (UniProt Q5AJ71); test: Ratio of compound to acetazolamide activity for inhibition of Candida albicans recombinant Nce103
T2 sequence (whole entry): T1 sequence (Q5AJ71 whole entry)

SMILES: Cc1ccc(-c2c(C(=O)NN)[nH]c3ccc(S(N)(=O)=O)cc23)cc1
Ki [1]: 10.5 nM | Ki [2]: 52 nM

SMILES: Cc1cc(C)[n+](NC(=O)c2[nH]c3ccc(S(N)(=O)=O)cc3c2-c2c(F)c(F)c(F)c(F)c2F)c(C)c1.[O-][Cl+3]([O-])([O-])[O-]
Ki [1]: 60.1 nM | Ki [2]: 5.1 nM

SMILES: NNC(=O)c1[nH]c2ccc(S(N)(=O)=O)cc2c1-c1ccc(F)cc1
Ki [1]: 8.6 nM | Ki [2]: 61 nM

SMILES: NNC(=O)c1[nH]c2ccc(S(N)(=O)=O)cc2c1-c1cccc(Br)c1
Ki [1]: 93 nM | Ki [2]: 87 nM

SMILES: Cc1cc(C)[n+](NC(=O)c2[nH]c3ccc(S(N)(=O)=O)cc3c2-c2ccc(Cl)cc2)c(C)c1.[O-][Cl+3]([O-])([O-])[O-]
Ki [1]: 3.1 nM | Ki [2]: 29 nM

SMILES: Cc1cc(C)[n+](NC(=O)c2[nH]c3ccc(S(N)(=O)=O)cc3c2-c2ccccc2)c(C)c1.[O-][Cl+3]([O-])([O-])[O-]
Ki [1]: 16.5 nM | Ki [2]: 42 nM

SMILES: NNC(=O)c1[nH]c2ccc(S(N)(=O)=O)cc2c1-c1ccccc1Cl
Ki [1]: 8 nM | Ki [2]: 45 nM | Ratio IC50 [3]: 4.8 | Ratio IC50 [4]: 80

SMILES: NNC(=O)c1[nH]c2ccc(S(N)(=O)=O)cc2c1-c1cccc(F)c1
Ki [1]: 7.2 nM | Ki [2]: 54 nM

SMILES: Cc1ccc(-c2c(C(=O)N[n+]3c(C)cc(C)cc3C)[nH]c3ccc(S(N)(=O)=O)cc23)cc1.[O-][Cl+3]([O-])([O-])[O-]
Ki [1]: 5.9 nM | Ki [2]: 41 nM

SMILES: Cc1cc(C)[n+](NC(=O)c2[nH]c3ccc(S(N)(=O)=O)cc3c2-c2cccc(Br)c2)c(C)c1.[O-][Cl+3]([O-])([O-])[O-]
Ki [1]: 14.3 nM | Ki [2]: 48 nM

SMILES: COc1cccc(-c2c(C(=O)N[n+]3c(C)cc(C)cc3C)[nH]c3ccc(S(N)(=O)=O)cc23)c1.[O-][Cl+3]([O-])([O-])[O-]
Ki [1]: 8.3 nM | Ki [2]: 119 nM

SMILES: Cc1cc(C)[n+](NC(=O)c2[nH]c3ccc(S(N)(=O)=O)cc3c2-c2cccc(Cl)c2)c(C)c1.[O-][Cl+3]([O-])([O-])[O-]
Ki [1]: 4.4 nM | Ki [2]: 31 nM

SMILES: NNC(=O)c1[nH]c2ccc(S(N)(=O)=O)cc2c1-c1ccccc1Br
Ki [1]: 62 nM | Ki [2]: 81 nM

SMILES: Cc1ccccc1-c1c(C(=O)NN)[nH]c2ccc(S(N)(=O)=O)cc12
Ki [1]: 9.2 nM | Ki [2]: 78 nM

SMILES: COc1cccc(-c2c(C(=O)NN)[nH]c3ccc(S(N)(=O)=O)cc23)c1
Ki [1]: 12 nM | Ki [2]: 128 nM

Ki [1]: 103 nM | Ratio [5]: 17.6
SMILES: NNC(=O)c1[nH]c2ccc(S(N)(=O)=O)cc2c1-c1c(F)c(F)c(F)c(F)c1F

SMILES: Cc1cc(C)[n+](NC(=O)c2[nH]c3ccc(S(N)(=O)=O)cc3c2-c2cccc(F)c2)c(C)c1.[O-][Cl+3]([O-])([O-])[O-]
Ki [1]: 8.3 nM | Ki [2]: 24 nM

SMILES: NNC(=O)c1[nH]c2ccc(S(N)(=O)=O)cc2c1-c1cccc(Cl)c1
Ki [1]: 7.4 nM | Ki [2]: 52 nM

SMILES: NNC(=O)c1[nH]c2ccc(S(N)(=O)=O)cc2c1-c1ccccc1F
Ki [1]: 7.9 nM | Ki [2]: 47 nM

SMILES: Cc1cccc(-c2c(C(=O)N[n+]3c(C)cc(C)cc3C)[nH]c3ccc(S(N)(=O)=O)cc23)c1.[O-][Cl+3]([O-])([O-])[O-]
Ki [1]: 6.1 nM | Ki [2]: 64 nM

SMILES: Cc1cc(C)[n+](NC(=O)c2[nH]c3ccc(S(N)(=O)=O)cc3c2-c2ccc(F)cc2)c(C)c1.[O-][Cl+3]([O-])([O-])[O-]
Ki [1]: 8.7 nM | Ki [2]: 21 nM

SMILES: Cc1cc(C)[n+](NC(=O)c2[nH]c3ccc(S(N)(=O)=O)cc3c2-c2ccccc2Br)c(C)c1.[O-][Cl+3]([O-])([O-])[O-]
Ki [1]: 12.1 nM | Ki [2]: 45 nM

SMILES: Cc1cc(C)[n+](NC(=O)c2[nH]c3ccc(S(N)(=O)=O)cc3c2-c2ccccc2Cl)c(C)c1.[O-][Cl+3]([O-])([O-])[O-]
Ki [1]: 15.4 nM | Ki [2]: 33 nM

SMILES: NNC(=O)c1[nH]c2ccc(S(N)(=O)=O)cc2c1-c1ccccc1
Ki [1]: 72 nM | Ki [2]: 85 nM

SMILES: NNC(=O)c1[nH]c2ccc(S(N)(=O)=O)cc2c1-c1ccc(Cl)cc1
Ki [1]: 70 nM | Ki [2]: 55 nM

SMILES: NNC(=O)c1[nH]c2ccc(S(N)(=O)=O)cc2c1-c1ccc(Br)cc1
Ki [1]: 118 nM | Ki [2]: 94 nM

SMILES: Cc1cc(C)[n+](NC(=O)c2[nH]c3ccc(S(N)(=O)=O)cc3c2-c2ccccc2C)c(C)c1.[O-][Cl+3]([O-])([O-])[O-]
Ki [1]: 6.5 nM | Ki [2]: 62 nM

SMILES: Cc1cc(C)[n+](NC(=O)c2[nH]c3ccc(S(N)(=O)=O)cc3c2-c2ccc(Br)cc2)c(C)c1.[O-][Cl+3]([O-])([O-])[O-]
Ki [1]: 10.9 nM | Ki [2]: 53 nM

SMILES: Cc1cc(C)[n+](NC(=O)c2[nH]c3ccc(S(N)(=O)=O)cc3c2-c2ccccc2F)c(C)c1.[O-][Cl+3]([O-])([O-])[O-]
Ki [1]: 16.2 nM | Ki [2]: 19 nM

SMILES: Cc1cccc(-c2c(C(=O)NN)[nH]c3ccc(S(N)(=O)=O)cc23)c1
Ki [1]: 9.1 nM | Ki [2]: 43 nM | Ratio IC50 [3]: 5.1 | Ratio IC50 [4]: 80.2
